Converted amounts (≈) assume the structure as drawn.
Test: API solubility in water
Format: physicochemical

## COC[C@H](NC(=O)c1cnc(C)s1)C(=O)N[C@@H](COC)C(=O)N[C@@H](Cc1ccccc1)C(=O)[C@@]1(C)CO1 [API, Oprozomib]
  solubility: ~500 µg/mL (≈ 939 µM)

— patent publication US9295708B2, “Modified release formulations for oprozomib” (Onyx Therapeutics, Inc., priority 2012, dated 2016)
